Measured values as given in ChEMBL document CHEMBL1138507, “Synthesis, activity, and pharmacophore development for isatin-beta-thiosemicarbazones with selective activity toward multidrug-resistant cells” (J Med Chem, 2009).

Tests used:
[1] = cells; details: Homo sapiens, KB-V1, 72 h
Description: Cytotoxicity against human P-glycoprotein-expressing KBV1 cells after 72 hrs by MTT assay

[2] = cells; details: Homo sapiens, KB 3-1, 72 h
Description: Cytotoxicity against human P-gp-negative KB-3-1 cells after 72 hrs by MTT assay

[3] = molecular target: T1, Receptor-type tyrosine-protein kinase FLT3 (Homo sapiens, UniProt P36888)
T1 sequence (P36888 whole entry): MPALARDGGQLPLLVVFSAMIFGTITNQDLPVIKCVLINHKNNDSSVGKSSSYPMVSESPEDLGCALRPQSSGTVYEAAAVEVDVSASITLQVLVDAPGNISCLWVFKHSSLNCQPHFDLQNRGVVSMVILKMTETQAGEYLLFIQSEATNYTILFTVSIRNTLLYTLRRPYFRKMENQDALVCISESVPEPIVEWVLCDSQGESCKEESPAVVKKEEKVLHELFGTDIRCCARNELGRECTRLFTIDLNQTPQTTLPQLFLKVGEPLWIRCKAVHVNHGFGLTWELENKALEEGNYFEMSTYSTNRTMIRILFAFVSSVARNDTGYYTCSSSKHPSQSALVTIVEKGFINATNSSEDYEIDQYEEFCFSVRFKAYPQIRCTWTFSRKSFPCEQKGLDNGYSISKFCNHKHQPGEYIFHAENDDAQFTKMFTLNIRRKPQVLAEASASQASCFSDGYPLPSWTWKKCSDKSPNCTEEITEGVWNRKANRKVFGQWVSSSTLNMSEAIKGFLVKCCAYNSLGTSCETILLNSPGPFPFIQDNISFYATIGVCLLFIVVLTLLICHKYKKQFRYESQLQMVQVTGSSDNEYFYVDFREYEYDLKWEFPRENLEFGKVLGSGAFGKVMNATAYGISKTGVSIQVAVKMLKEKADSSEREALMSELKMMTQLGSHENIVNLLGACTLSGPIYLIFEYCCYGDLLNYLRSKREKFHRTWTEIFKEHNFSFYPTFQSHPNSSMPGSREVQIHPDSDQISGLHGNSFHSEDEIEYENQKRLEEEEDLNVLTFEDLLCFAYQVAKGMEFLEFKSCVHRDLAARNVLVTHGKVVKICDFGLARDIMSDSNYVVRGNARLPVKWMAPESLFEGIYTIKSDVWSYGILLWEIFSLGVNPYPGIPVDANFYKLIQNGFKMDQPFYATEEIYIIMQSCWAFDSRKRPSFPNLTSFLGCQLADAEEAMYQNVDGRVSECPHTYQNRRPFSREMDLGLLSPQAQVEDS

[4] = molecular target: Ribosomal protein S6 kinase alpha-1 (Homo sapiens, UniProt Q15418)
Sequence of Ribosomal protein S6 kinase alpha-1 (Q15418 whole entry): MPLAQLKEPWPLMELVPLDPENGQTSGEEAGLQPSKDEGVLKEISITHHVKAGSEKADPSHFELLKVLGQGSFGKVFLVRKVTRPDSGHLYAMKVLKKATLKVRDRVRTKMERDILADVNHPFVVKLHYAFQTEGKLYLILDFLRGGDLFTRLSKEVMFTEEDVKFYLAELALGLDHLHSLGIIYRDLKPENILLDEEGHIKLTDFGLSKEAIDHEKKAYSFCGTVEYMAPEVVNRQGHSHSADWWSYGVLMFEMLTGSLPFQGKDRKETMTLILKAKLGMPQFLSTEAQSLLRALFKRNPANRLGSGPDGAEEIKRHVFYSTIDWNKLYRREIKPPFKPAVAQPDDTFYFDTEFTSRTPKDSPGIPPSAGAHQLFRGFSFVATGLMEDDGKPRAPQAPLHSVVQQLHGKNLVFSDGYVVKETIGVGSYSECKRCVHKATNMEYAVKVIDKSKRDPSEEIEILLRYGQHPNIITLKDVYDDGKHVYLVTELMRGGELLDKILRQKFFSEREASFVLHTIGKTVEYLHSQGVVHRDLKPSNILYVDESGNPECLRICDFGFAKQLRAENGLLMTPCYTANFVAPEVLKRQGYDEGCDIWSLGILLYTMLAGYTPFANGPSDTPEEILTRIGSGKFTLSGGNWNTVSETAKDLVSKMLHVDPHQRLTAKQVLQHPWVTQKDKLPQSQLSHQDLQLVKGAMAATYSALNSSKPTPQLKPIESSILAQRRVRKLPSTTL

[5] = molecular target: Serine/threonine-protein kinase pim-1 (Homo sapiens, UniProt P11309)
Sequence of Serine/threonine-protein kinase pim-1 (P11309 whole entry): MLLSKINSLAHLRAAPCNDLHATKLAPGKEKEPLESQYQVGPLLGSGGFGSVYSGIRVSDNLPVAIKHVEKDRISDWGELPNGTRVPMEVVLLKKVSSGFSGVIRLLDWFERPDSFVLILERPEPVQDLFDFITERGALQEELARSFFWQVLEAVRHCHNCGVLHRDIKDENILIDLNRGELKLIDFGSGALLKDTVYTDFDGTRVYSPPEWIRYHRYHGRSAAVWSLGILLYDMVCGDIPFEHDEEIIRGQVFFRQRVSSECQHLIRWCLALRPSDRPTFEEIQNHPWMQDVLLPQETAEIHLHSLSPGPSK

[6] = molecular target: Tyrosine-protein kinase ABL1 (Homo sapiens, UniProt P00519); experiment: Inhibition of ABL1
Sequence of Tyrosine-protein kinase ABL1 (P00519 whole entry): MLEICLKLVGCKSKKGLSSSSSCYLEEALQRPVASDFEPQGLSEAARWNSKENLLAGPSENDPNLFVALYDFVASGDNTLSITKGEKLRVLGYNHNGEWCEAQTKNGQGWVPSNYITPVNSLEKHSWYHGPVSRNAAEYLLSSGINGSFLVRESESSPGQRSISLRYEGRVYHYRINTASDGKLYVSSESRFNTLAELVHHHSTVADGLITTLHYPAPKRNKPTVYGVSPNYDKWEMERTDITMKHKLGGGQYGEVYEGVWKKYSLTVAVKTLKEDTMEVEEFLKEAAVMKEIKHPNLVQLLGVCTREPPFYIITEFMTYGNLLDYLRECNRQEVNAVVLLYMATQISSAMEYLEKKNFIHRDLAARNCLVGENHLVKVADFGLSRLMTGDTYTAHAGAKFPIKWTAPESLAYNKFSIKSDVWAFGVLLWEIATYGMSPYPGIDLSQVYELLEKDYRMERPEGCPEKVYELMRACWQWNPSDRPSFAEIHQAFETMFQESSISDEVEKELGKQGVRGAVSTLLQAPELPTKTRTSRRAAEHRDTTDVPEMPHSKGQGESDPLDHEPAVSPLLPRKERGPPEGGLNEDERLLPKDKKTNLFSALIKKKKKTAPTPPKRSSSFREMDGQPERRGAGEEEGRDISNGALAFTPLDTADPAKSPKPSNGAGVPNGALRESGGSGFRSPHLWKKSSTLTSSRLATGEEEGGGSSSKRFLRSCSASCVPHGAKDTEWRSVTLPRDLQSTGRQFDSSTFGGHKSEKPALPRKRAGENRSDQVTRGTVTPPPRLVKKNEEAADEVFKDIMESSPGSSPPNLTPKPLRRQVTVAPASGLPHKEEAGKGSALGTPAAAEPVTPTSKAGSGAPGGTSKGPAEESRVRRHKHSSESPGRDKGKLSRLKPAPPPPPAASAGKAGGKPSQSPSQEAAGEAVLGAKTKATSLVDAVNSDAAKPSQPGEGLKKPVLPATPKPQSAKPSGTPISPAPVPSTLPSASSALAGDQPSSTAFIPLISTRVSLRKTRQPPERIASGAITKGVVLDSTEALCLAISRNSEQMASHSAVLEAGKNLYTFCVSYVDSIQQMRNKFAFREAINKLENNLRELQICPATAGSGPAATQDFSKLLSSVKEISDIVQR

[7] = molecular target: Rho-associated protein kinase 1 (Homo sapiens, UniProt Q13464); experiment: Inhibition of ROCK1
Sequence of Rho-associated protein kinase 1 (Q13464 whole entry): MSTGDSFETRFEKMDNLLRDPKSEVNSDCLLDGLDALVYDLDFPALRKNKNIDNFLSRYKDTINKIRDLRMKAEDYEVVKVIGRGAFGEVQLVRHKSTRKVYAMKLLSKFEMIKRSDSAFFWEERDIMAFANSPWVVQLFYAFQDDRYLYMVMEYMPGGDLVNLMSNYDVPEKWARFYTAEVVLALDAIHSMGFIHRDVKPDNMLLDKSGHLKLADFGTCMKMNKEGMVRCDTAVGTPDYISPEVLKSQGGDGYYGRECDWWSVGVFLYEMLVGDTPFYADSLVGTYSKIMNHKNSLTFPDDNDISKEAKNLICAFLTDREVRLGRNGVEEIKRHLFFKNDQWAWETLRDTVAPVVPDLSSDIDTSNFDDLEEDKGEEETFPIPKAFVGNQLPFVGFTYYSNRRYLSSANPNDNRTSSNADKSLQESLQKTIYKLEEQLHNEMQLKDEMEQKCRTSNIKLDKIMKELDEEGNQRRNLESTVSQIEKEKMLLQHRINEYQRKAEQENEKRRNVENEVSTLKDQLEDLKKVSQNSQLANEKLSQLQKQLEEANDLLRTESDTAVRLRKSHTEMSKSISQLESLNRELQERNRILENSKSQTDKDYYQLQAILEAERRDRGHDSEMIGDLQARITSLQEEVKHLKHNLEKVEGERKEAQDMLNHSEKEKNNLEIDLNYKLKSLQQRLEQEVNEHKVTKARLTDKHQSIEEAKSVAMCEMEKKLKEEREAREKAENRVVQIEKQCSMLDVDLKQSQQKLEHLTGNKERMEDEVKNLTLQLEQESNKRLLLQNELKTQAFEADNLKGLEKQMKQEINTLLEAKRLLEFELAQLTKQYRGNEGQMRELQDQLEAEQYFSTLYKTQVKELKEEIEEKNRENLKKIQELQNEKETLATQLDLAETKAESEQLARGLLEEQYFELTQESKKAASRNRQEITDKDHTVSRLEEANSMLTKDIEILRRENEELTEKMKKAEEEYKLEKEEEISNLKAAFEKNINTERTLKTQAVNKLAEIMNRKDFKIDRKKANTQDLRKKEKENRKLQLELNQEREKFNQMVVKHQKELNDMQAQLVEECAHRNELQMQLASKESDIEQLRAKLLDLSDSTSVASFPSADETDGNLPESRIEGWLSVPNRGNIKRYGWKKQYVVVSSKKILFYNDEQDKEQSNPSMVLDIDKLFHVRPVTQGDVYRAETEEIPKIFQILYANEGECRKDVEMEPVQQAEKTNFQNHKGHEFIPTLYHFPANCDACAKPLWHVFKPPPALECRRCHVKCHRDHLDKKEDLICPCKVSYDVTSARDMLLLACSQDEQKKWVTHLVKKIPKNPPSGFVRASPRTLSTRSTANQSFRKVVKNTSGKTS

[8] = molecular target: Cyclin-dependent kinase 2 (Homo sapiens, UniProt P24941); experiment: Inhibition of CDK2/cyclinA
[9] = molecular target: Protein kinase C alpha type (Homo sapiens, UniProt P17252); experiment: Inhibition of PKCalpha
[10] = molecular target: T2, Serine/threonine-protein kinase Chk1 (Homo sapiens, UniProt O14757)
T2 sequence (O14757 whole entry): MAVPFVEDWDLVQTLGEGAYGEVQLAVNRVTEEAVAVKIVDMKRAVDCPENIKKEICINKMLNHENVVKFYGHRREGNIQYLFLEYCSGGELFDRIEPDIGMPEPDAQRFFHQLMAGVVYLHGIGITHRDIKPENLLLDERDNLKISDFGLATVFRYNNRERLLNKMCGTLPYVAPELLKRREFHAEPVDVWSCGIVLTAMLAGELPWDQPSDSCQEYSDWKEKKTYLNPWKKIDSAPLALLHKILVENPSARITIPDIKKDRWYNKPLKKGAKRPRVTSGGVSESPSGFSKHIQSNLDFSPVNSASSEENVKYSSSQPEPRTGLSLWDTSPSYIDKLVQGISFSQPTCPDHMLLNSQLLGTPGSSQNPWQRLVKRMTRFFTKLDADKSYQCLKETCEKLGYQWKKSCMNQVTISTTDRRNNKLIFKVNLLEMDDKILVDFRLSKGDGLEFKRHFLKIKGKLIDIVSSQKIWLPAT

[11] = molecular target: Serine/threonine-protein kinase PLK2 (Homo sapiens, UniProt Q9NYY3)
Sequence of Serine/threonine-protein kinase PLK2 (Q9NYY3 whole entry): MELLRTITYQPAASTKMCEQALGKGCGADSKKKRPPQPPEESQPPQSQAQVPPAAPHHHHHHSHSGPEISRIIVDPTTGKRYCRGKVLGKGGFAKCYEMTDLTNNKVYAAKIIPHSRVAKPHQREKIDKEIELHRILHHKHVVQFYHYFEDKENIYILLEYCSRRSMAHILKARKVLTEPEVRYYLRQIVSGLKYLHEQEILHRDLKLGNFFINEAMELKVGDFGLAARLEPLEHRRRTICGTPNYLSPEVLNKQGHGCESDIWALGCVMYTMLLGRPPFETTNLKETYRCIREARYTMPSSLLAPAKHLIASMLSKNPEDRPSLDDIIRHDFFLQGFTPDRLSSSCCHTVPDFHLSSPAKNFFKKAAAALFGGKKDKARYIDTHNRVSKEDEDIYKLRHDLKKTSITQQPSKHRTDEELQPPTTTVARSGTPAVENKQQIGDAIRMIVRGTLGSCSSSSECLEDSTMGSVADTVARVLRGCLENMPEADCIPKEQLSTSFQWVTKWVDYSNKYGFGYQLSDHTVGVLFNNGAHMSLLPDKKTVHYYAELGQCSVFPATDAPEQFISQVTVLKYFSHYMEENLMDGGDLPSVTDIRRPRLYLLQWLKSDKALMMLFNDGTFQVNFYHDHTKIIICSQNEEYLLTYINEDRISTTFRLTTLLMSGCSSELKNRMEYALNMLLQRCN

NC(=S)/N=N/c1c(O)[nH]c2ccccc12
IC50 [1]: > 50 µM | IC50 [2]: > 50 µM

O=C1Nc2ccc([N+](=O)[O-])cc2/C1=N/NC(=S)Nc1ccccc1
IC50 [1]: 10.2 µM | IC50 ([1]; read-out: pIC50 (converted)): 10.2 µM | IC50 [2]: 14.5 µM | IC50 ([2]; read-out: pIC50 (converted)): 14.5 µM

C=CCNC(=S)N/N=C1\C(=O)Nc2ccc([N+](=O)[O-])cc21
IC50 [1]: 34.3 µM | IC50 ([1]; read-out: pIC50 (converted)): 35.5 µM | IC50 [2]: 17 µM | IC50 ([2]; read-out: pIC50 (converted)): 28.2 µM

Cc1cnc(/C=N/NC(N)=S)c2cccc(N)c12
IC50 [1]: 2.1 µM | IC50 ([1]; read-out: pIC50 (converted)): 2.09 µM | IC50 [2]: 1.9 µM | IC50 ([2]; read-out: pIC50 (converted)): 1.91 µM

COc1ccc(NC(=S)NN)cc1
IC50 [1]: > 50 µM | IC50 [2]: > 50 µM

COc1ccc(NC(=S)N/N=C/c2ccccn2)cc1
IC50 [1]: 2.4 µM | IC50 ([1]; read-out: pIC50 (converted)): 2.4 µM | IC50 [2]: 3.4 µM | IC50 ([2]; read-out: pIC50 (converted)): 3.39 µM

COc1ccc(NC(=S)N/N=C2\C(=O)Nc3c2ccc2ccccc32)cc1
IC50 [1]: 30.3 µM | IC50 [2]: 4.4 µM | IC50 ([2]; read-out: pIC50 (converted)): 4.37 µM

COc1ccc(NC(=S)N/N=C2\C(=O)Nc3ccc(F)cc32)cc1
IC50 [1]: 5.2 µM | IC50 ([1]; read-out: pIC50 (converted)): 5.25 µM | IC50 [2]: 39.3 µM | IC50 ([2]; read-out: pIC50 (converted)): 38.9 µM

COc1ccc(NC(=S)N/N=C2\C(=O)N(C)c3ccccc32)cc1
IC50 [1]: 9.3 µM | IC50 ([1]; read-out: pIC50 (converted)): 9.33 µM | IC50 [2]: 19.6 µM | IC50 ([2]; read-out: pIC50 (converted)): 19.5 µM

COc1ccc(NC(=S)N/N=C2\C(=O)Nc3ccc([N+](=O)[O-])cc32)cc1
IC50 [1]: 6.7 µM | IC50 ([1]; read-out: pIC50 (converted)): 6.76 µM | IC50 [2]: 26.3 µM | IC50 ([2]; read-out: pIC50 (converted)): 26.3 µM

COc1ccc(NC(=O)N/N=C2\C(=O)Nc3ccccc32)cc1
IC50 [1]: > 50 µM | IC50 [2]: 27.7 µM

COc1ccc(NC(=S)NN=C2Cc3ccccc3C2)cc1
IC50 [1]: > 50 µM | IC50 [2]: > 50 µM

COc1ccc(NC(=S)N/N=C2\CCc3ccccc32)cc1
IC50 [1]: > 50 µM | IC50 [2]: > 50 µM

O=C1Nc2ccc(Br)cc2/C1=N/NC(=S)Nc1ccc([N+](=O)[O-])cc1
IC50 [1]: 4 µM | IC50 ([1]; read-out: pIC50 (converted)): 3.98 µM | IC50 [2]: 28.4 µM | IC50 ([2]; read-out: pIC50 (converted)): 28.2 µM

CCOC(=O)C(=CNC(=S)N/N=C1\C(=O)Nc2ccccc21)C(=O)OCC
IC50 [1]: > 50 µM | IC50 [2]: > 50 µM

O=C1Nc2ccc(Br)cc2/C1=N/NC(=S)Nc1ccc(F)cc1
IC50 [1]: 5.8 µM | IC50 ([1]; read-out: pIC50 (converted)): 5.75 µM | IC50 [2]: 13.1 µM | IC50 ([2]; read-out: pIC50 (converted)): 13.2 µM

COc1ccc(NC(=S)NNC2=c3ccccc3=NC2=O)cc1
IC50 [3]: > 50 µM | IC50 [4]: 34.9 µM | IC50 [5]: > 50 µM | IC50 [6]: > 50 µM | IC50 [7]: > 50 µM | IC50 [8]: > 50 µM | IC50 [9]: > 50 µM | IC50 [1]: 3.3 µM | IC50 ([1]; read-out: pIC50 (converted)): 3.31 µM | IC50 [10]: > 50 µM | IC50 [2]: 14.2 µM | IC50 ([2]; read-out: pIC50 (converted)): 14.1 µM | IC50 [11]: > 50 µM

COc1ccc(NC(=S)N/N=C2\C(=O)Nc3ccc(S(=O)(=O)O)cc32)cc1
IC50 [1]: > 50 µM | IC50 [2]: > 50 µM

COc1ccc(NC(=S)N/N=C/c2ccc(NC(C)=O)cc2)cc1
IC50 [1]: > 50 µM | IC50 [2]: > 50 µM

C=CCNC(=S)N/N=C1\C(=O)Nc2ccccc21
IC50 [1]: 20.7 µM | IC50 ([1]; read-out: pIC50 (converted)): 20.9 µM | IC50 [2]: 26.1 µM | IC50 ([2]; read-out: pIC50 (converted)): 26.3 µM

NC(=O)N/N=C1\C(=O)Nc2ccccc21
IC50 [1]: > 50 µM | IC50 [2]: > 50 µM

CC(=O)Nc1ccc(/C=N/NC(N)=S)cc1 [AMITHIOZONE]
IC50 [1]: > 50 µM | IC50 [2]: > 50 µM

O=C1Nc2ccccc2C1=O [ISATIN]
IC50 [1]: > 50 µM | IC50 [2]: > 50 µM

NC(=S)N/N=C/c1ncccc1N [TRIAPINE]
IC50 [1]: 5.9 µM | IC50 ([1]; read-out: pIC50 (converted)): 5.89 µM | IC50 [2]: 1.4 µM | IC50 ([2]; read-out: pIC50 (converted)): 1.41 µM
